Measurements from US20250241890A1, “1,4-DIUREAS AND 1,4-DITHIOUREAS AND USES THEREOF” (Purdue Research Foundation, priority 2024, published 2025).

Tests used:
Format in all cases: biochemical
tau isoform 0N4R = target: T1, tau isoform 0N4R (Homo sapiens, UniProt P10636); assay: PICUP assay of tau 0N4R oligomer formation; details: tau 10 μM, compound 50 μM (molar ratio 1:5)
T1 construct: made in house; host or cells: Rosetta BL21 E. coli
Method: FIG. 5. […] Compounds 1, 2, and 8 were selected for their α-syn anti-oligomerization activity. Compound 7 was used as di-urea counterpart of compound 8, as compound 1 is the di-urea counterpart of compound 2, a dithiourea derivative. Tau (10 μM) was cross-linked (PICUP assay) with different concentrations of the di-substituted aminoindolyl derivatives at 50 μM (molar ratio 1:5).
Chemical and peptide source. Dimethylsulfoxide (DMSO) and thioflavin-T (ThT) were purchased from Alfa Aesar (Ward Hill, MA). Recombinant α-synuclein (α-syn) was procured from rPeptide (WatKinsville, GA). The recombinant p-tau isoform 1N4R was prepared as published previously (Fortin et al. 2021, Sui et al. 2015, Liu et al. 2020). Concerning the preparation of tau 0N4R, a bacterial expression plasmid consisting of the vector pET30a carrying a cDNA encoding the human Tau 0N4R isoform was a kind gift of Dr. Benjamin Wolozin (Boston University). E. coli stock (Rosetta BL21 E. coli (CamR) containing pET30a [0N4R tau wt] (KanR)) was grown in LB medium supplemented with kanamycin (50 μg/mL) and chloramphenicol (50 μg/mL). […] General Characterizations. ^1H and ^13C {1H} NMR spectra were recorded using a 500 MHz Bruker instrument working at a frequency of 500 MHz for ^1H and at 126 MHz for ^13C. […] Thioflavin fluorescence assays. Thioflavin fluorescence assays were used to monitor fibril formation of commercial recombinant α-syn at a final concentration of 2 μM and treated with control DMSO and different compounds. […] Kinetics of fibril formation have been performed using ThT as published previously.^6, 12, 13, 24 The fluorescence emission experiments were performed with the excitation and emission wavelengths set at 440 and 485 nm, respectively, with a Synergy HT multi-mode microplate reader (BioTek, Winooski, VT). Samples were measured in three replicates. […] For each time point, arbitrary units of fluorescence were calculated from the mean values normalized against the maximum value. The percentage of fluorescence intensity at the plateau phase in Table 1 was expressed as mean #SEM. […]

p-tau isoform 1N4R = target: T2, p-tau isoform 1N4R (Homo sapiens, UniProt P10636); assay: PICUP assay of p-tau 1N4R oligomer formation; details: p-tau 4 μM, compound 50 μM (molar ratio 1:12.5)
T2 construct: made in house

α-syn fibrils = target: T3, α-syn fibrils (Homo sapiens, UniProt P37840); assay: Transmission electron microscopy (TEM) of α-syn fibrils; details: α-syn 2 μM, compound 100 μM, ~22 hours at 37° C.
T3 construct: purchased rPeptide (Watkinsville, GA)

T1 sequence (P10636 1-383 isoform P10636-6): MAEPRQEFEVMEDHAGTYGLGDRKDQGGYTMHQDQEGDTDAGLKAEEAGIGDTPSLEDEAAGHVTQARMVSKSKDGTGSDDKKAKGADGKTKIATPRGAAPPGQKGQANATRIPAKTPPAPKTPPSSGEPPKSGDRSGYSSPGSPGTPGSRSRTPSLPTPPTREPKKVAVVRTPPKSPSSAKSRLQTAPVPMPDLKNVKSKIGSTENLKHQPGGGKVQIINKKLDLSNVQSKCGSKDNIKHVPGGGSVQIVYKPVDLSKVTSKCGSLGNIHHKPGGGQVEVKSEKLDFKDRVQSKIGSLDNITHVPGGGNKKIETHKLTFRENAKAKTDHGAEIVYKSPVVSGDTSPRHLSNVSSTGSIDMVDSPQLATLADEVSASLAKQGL
T2 sequence (P10636 1-412 isoform P10636-7): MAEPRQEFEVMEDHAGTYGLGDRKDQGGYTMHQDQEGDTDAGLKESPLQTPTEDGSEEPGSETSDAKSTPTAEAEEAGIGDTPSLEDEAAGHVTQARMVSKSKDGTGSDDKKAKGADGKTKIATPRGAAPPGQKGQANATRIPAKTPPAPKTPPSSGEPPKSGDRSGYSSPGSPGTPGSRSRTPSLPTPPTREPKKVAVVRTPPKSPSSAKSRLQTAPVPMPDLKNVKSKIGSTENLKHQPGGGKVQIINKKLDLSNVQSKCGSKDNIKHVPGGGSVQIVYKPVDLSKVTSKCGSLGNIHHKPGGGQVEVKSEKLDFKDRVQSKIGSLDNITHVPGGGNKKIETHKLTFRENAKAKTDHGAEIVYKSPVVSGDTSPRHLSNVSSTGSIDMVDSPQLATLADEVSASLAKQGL

Structure (SMILES) | effect on tau 0N4R oligomer formation by PICUP (tau isoform 0N4R) | effect on p-tau 1N4R oligomer formation by PICUP (p-tau isoform 1N4R) | effect on α-syn fibrils by TEM (α-syn fibrils)
S=C(Nc1ccc(NC(=S)Nc2cccc3cc[nH]c23)cc1)Nc1cccc2cc[nH]c12 [Compound 8, 3-(1H-indol-7-yl)-1-(4-{[(1H-indol-7-yl)carbamothioyl]amino}phenyl)thiourea] | None of these compounds were able to reduce the tau 0N4R oligomer formation |  | 
S=C(Nc1ccc(NC(=S)Nc2cccc3[nH]ccc23)cc1)Nc1cccc2[nH]ccc12 [Compound 2, 3-(1H-indol-4-yl)-1-(4-{[(1H-indol-4-yl)carbamothioyl]amino}phenyl)thiourea] | None of these compounds were able to reduce the tau 0N4R oligomer formation | failed to inhibit p-tau oligomer formation | reduced α-syn fibril formation
